Columns and labels:
[1] = test system: nude mice bearing GW39 colonic cancer xenografts; assay: Kidney uptake and dosimetry of 188Re-Fab′ Mu-9 under L-lysine treatment; type: in vivo
Excerpt: (§1) After cervical dislocation, the animals were dissected.
No effect on the uptake in the tunor or other organs was observed.

mice [2] = assay: Kidney uptake of 111In- and 88Y-labeled F(ab)2 fragments of MN-14; type: in vivo
Excerpt: as §1

mice [3] = assay: Kidney uptake of 125I-labeled Fab′ NP-4 and dosimetry for 131I-labeled Fab′ under L-lysine; type: in vivo
Excerpt: as §1

[4] = test system: GW39 colonic cancer xenograft bearing nude mice; assay: Biodistribution of anti-CEA 99mTc-Fab′ NP-4 under L-lysine / poly-L-lysine treatment; type: in vivo
Excerpt: as §1

mice [5] = assay: Maximum tolerated dose and toxicity of lysine and poly-lysine; type: in vivo
Excerpt: Comparison of the results in the control mice with those in the mice that receive the lysine and/or poly-lysine allows determination of the optimal dosage required to achieve the desired effect on kidney uptake of radioactivity. Determination of the dosage of lysine and/or poly-lysine that can be tolerated before toxic effects are observed can be achieved by physiological examination and histological observation of organs by methods. The optimal dosages of lysine and/or poly-lysine that are determined using the mouse model are used to guide the determination of appropriate dosage levels in human subjects using a standard dosage escalation regimen. Methods for determining effective dosages of lysine and/or poly-lysine for reducing kidney uptake are further illustrated in the Examples, below.
(§2) L-lysine was injected i.p. in hourly intervals from 30 min before until 3 h after intravenous antibody injections (−30′, 1 h, 2 h, 3 h p.i.). […] At doses above this threshold, a strong dose-effect relationship was found. At 4×2000 μg/g, kidney uptake was reduced to 19±1% of the untreated control group at 4 h p.i.

BALB/c mice = assay: Kidney uptake and biodistribution of 99mTc-Fab′ NP-4 under lysine treatment; type: in vivo; details: for Kidney uptake, % of contr.: L-lysine 2000 μg/g
Protocol: as §1, §2

mice [6] = assay: Kidney uptake and dosimetry of yttrium-labeled F(ab′)2 of anti-CD22 LL2 under L-lysine; type: in vivo; details: Lys treated
[7] = test system: GW39 colonic cancer xenograft bearing nude mice; assay: Dosimetry of 111In/88Y-Bz-DTPA-Fab′ MN-14 under L-lysine treatment; type: in vivo; details: L-lysine four times 2000 μg/g i.p.
Protocol: as §1
To test the effectiveness of L-lysine in reduction of kidney uptake of indium and yttrium-labeled Fab′ fragments, a mixture of ^111In and ^88Y-labeled Fab′ fragments of the anti-CEA antibody MN-14 were injected into GW39 colon carcinoma bearing nude mice (injected with four times 2000 μg/g L-lysine; the control group were untreated). FIG. 4 and Table 4 suns the results.

mice [8] = assay: Biodistribution of 99mTc-Fab′ NP-4 under poly-L-lysine of different molecular weight and lysine/poly-lysine mixtures; details: poly-L-lysine administered twice (30′ before and 1 h after antibody), dose and size not given, 4 h p.i.
Protocol: Female BALB/c mice, 19 to 22 g of weight, 4 to 5 weeks of age (Charles River Laboratories, Boston, Mass.) were used as non-tumor-bearing animals. For a human tumor xenograft model, the human colon carcinoma cell line GW39 (Primus et al supra) was grown subcutaneously in 5- to 6-week-old female athymic mice (Harlan, Madison, Wis.). Animals were injected intravenously into the tail vein with approximately 5-10 μg of antibody fragment protein (i.e., 25-40 μCi of ^99mTc, ^188Re, and ^111In, resp.; 4 μCi of ^88Y, and 10 μCi of ^125I, respectively).
The mice were sacrificed after 4 h and 24 h for ^99mTc-labeled antibodies, and after 4, 24, 72, 96 and 168 h for ^125I, ^111In, ^88Y and ^188Re-labeled antibodies. Mice were sacrificed by anesthesia with sodium pentobarbital and bled by cardiac puncture. After cervical dislocation, the animals were dissected. Radioactivity in the tumors and tissues (liver, spleen, kidney, lung, intestine, blood and bone) was determined by gamma scintillation counting using an injection standard to correct for physical decay.
L-lysine, D-lysine and L-arginine monohydrochloride salts (Sigma, St. Louis, Mo.) were dissolved in phosphate-buffered saline (PBS) at a concentration of 160 mg/ml. L-lysine ethyl ester dihydrochloride was dissolved in PBS to yield a concentration of 80 mg/ml. Poly-L-lysine (1-4 kDa and 15-30 kDa) were used as hydrochloride salts at concentration of 25 mg/ml and 10 mg/ml, respectively.
Animals were injected with the lysine and/or poly-lysine solutions intraperitoneally in amounts and at frequencies as shown below. Human patients were infused intravenously over a three-hour period with 1.5 liters of a commercially available amino acid solution starting 15 min before the antibody injection. The data of a total of 77 patients examined with ^99mTc-labeled anti-CEA Fab′ (NP-4: n=19; F023C5: n=58) were taken as controls (infused with the same volume of 0.9% saline instead of the amino acid solution).
To attempt to reduce the necessity of frequent injections of the kidney uptake reducing agent, polymeric substances of higher molecular weight were investigated.
To reach maximal effectiveness with as few injections as possible, combinations of lysine and poly-lysine were tested.

[9] = 131I-Fab′ NP-4, L-lysine 4 × 2 mg/g

NCCCC[C@H](N)C(=O)O [L-lysine] was tested, and the “effect on the uptake in the tumor or other organs” value ([1]; 188Re-Fab′ Mu-9) was “No effect”, the “lys/contr. dose ratio, Blood” value ([1]; 188Re-Fab′ Mu-9) was 0.79 and the “lys/contr. dose ratio, Bone” value ([1]; 188Re-Fab′ Mu-9) was 0.89. For the same molecule, the “lys/contr. dose ratio, GW39” value ([1]; 188Re-Fab′ Mu-9) was 1.23, the “lys/contr. dose ratio, Kidney” value ([1]; 188Re-Fab′ Mu-9) was 0.39 and the “lys/contr. dose ratio, Liver” value ([1]; 188Re-Fab′ Mu-9) was 0.96. The “lys/contr. dose ratio, Lung” value ([1]; 188Re-Fab′ Mu-9) was 0.76, the “lys/contr. dose ratio, Spleen” value ([1]; 188Re-Fab′ Mu-9) was 0.94 and the “effect on the tumor dose” value ([1]; 188Re-Mu-9 Fab′ dosimetry) was “no effect on the tumor dose could be observed”. For the same molecule, the “kidney dose, % of the renal dose in the control group” value ([1]; 188Re-Mu-9 Fab′ dosimetry) was “approximately 30%”, the “kidney uptake of 188Re-Fab′ Mu-9, % of the untreated control” value ([1]; 4 h p.i.) was 29% and the “persistence of reduction of uptake” value (mice [2]; F(ab′)2 fragments) was “persisted for several days”. For the same molecule, the “kidney uptake of 111In- and 88Y-F(ab′)2, % of control” value (mice [2]; lysine treatment) was “approximately 30%”, the “kidney uptake of iodine-labeled Fab′, % of the nontreated control” value (mice [3]; 125I-Fab′ NP-4, 4 h p.i.) was 38.7% and the “Lys/control dose ratio, Blood” value (mice [3]; [9]) was 0.99. For the same molecule, the “Lys/control dose ratio, Kidney” value (mice [3]; [9]) was 0.51, the “Lys/control dose ratio, Liver” value (mice [3]; [9]) was 0.94 and the “Lys/control dose ratio, Lung” value (mice [3]; [9]) was 0.95. The “Lys/control dose ratio, Spleen” value (mice [3]; [9]) was 0.81, the “reduction of the absorbed dose to the kidney” value (mice [3]; calculated for a 131I-labeled Fab′ fragment) was 50% and the “Kidney uptake, % of contr.” value ([4]; L-lysine 0.5 mg/g i.p. at −30′, 1, 2, 3 h, 4 h p.i.) was 63.0 % of contr. The “Kidney uptake, % of contr.” value ([4]; L-lysine 0.5 mg/g i.p. at −30′, 1, 2, 3 h, 24 h p.i.) was 70.0 % of contr, the “Kidney uptake, % of contr.” value ([4]; L-lysine 2 mg/g i.p. at −30′, 1, 2, 3 h, 4 h p.i.) was 29.7 % of contr and the “Kidney uptake, % of contr.” value ([4]; L-lysine 2 mg/g i.p. at −30′, 1, 2, 3 h, 24 h p.i.) was 30.0 % of contr. For the same molecule, the “influence on the tumor uptake or uptake in any other organ than the kidneys” value ([4]; nude mice bearing human colonic xenografts) was “no significant influence”, the “tolerability at the MTD” value (mice [5]; 4×2500 μg/g, monitored for three months) was “tolerated without any obvious short or long term toxicity” and the “maximum tolerated dose (MTD)” value (mice [5]; 4× injected i.p. in hourly intervals) was 2500 µg/g. For the same molecule, the “toxicity at doses higher than the MTD” value (mice [5]; above 4×2500 μg/g) was “began to develop fluid in the body cavities”, the “kidney uptake of 99mTc-Fab′ NP-4, % of the untreated control group” value (BALB/c mice; 4×2000 μg/g i.p. in hourly intervals, 4 h p.i.) was 19±1% and the “Kidney uptake, % of contr.” value (BALB/c mice; injection 4x at −30′, 1, 2, 3 h, 4 h p.i.) was 15.5 % of contr. For the same molecule, the “Kidney uptake, % of contr.” value (BALB/c mice; injection once at −30′, 4 h p.i.) was 56.4 % of contr, the “Kidney uptake, % of contr.” value (BALB/c mice; injection twice at −30′ and 1 h, 4 h p.i.) was 44.1 % of contr and the “effect on kidney uptake of 99mTc-Fab′ NP-4” value (BALB/c mice; doses below four times 100 μg/g body weight, hourly intervals) was “no significant effect”. For the same molecule, the “persistence of uptake reduction of 99mTc-Fab′” value (BALB/c mice; mouse, in vivo) was 24 h, the “Kidney dose, % control” value (mice [6]) was 50.9 % control and the “Kidney uptake, % control” value (mice [6]; 4 h p.i.) was 58.5 % control. The “Kidney uptake, % control” value (mice [6]; 48 h p.i.) was 49.6 % control, the “Kidney dose relative to control (100%), based on 88Y” value [7] was 18.8% and the “Kidney dose relative to control (100%), based on 111In” value [7] was 22.9%.

NCCCC[C@@H](N)C(=O)O [D-lysine] was tested, and the “lowering of kidney uptake compared with L-lysine” value (BALB/c mice; four hourly injections i.p., same conditions as L-lysine) was “equally as effective as the L-isomer”.

For poly-L-lysine, the “Kidney uptake of 99mTc-Fab′ NP-4” value (mice [8]; first treated column) was 43.7 ± 10.0, the “Kidney uptake, % control” value (mice [8]; first treated column) was 59.9 % control and the “Kidney uptake of 99mTc-Fab′ NP-4” value (mice [8]; second treated column) was 41.6 ± 8.8. For the same molecule, the “Kidney uptake, % control” value (mice [8]; second treated column) was 56.9 % control.
